Read-outs that look alike come from different tables or passages of the source.
Legend:
Type in all cases: in vivo
Diabrotica balteata = Diabrotica balteata (corn root worm), sprayed maize sprouts; conditions: 96 h, read-out: effect in at least one of the two categories (mortality or growth inhibition); for percent effect (mortality or growth inhibition) at 200 ppm: application rate 200 ppm, L2 larvae, 4 days after infestation
Procedure, shortened: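 Read-out at 4 days post-infestation: mortality and growth inhibition relative to untreated samples. Test solutions (200 ppm, from DMSO stocks) were sprayed onto agar-held maize sprouts, which after drying received 6–10 L2 larvae per well.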

Euschistus heros = Euschistus heros (neotropical brown stink bug), sprayed soybean leaves; conditions: 120 h, read-out: effect in at least one of the two categories (mortality or growth inhibition); for percent effect (mortality or growth inhibition) at 200 ppm: application rate 200 ppm, N2 nymphs, 5 days after infestation
Procedure, shortened: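 Scored 5 days post-infestation versus untreated controls, for both mortality and growth inhibition: N2 nymphs placed on agar-mounted soybean leaves previously sprayed at 200 ppm with aqueous test solutions from DMSO stocks and left to dry.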

Myzus persicae = Myzus persicae (green peach aphid): feeding/contact activity; conditions: 144 h
Protocol: Sunflower leaf discs were placed onto agar in a 24-well microtiter plate and sprayed with aqueous test solutions prepared from 10'000 ppm DMSO stock solutions. After drying, the leaf discs were infested with an aphid population of mixed ages. The samples were assessed for mortality 6 days after infestation.

Plutella xylostella = Plutella xylostella (diamond back moth), artificial diet; conditions: 120 h, read-out: effect in at least one of the two categories (mortality or growth inhibition); for percent effect (mortality or growth inhibition) at 200 ppm: application rate 200 ppm, L2 larvae, 5 days after infestation
Procedure, shortened: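 L2 larvae (10-15 per well) fed on compound-treated, dried artificial diet; test solutions diluted in water from 10'000 ppm DMSO stocks. Readout 5 days post-infestation as mortality or growth inhibition versus untreated diet, with at least 80% effect at 200 ppm as threshold.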

Spodoptera littoralis = Spodoptera littoralis (Egyptian cotton leaf worm), sprayed cotton leaf discs; conditions: foliar, 72 h, read-out: control (mortality, anti-feeding effect, growth inhibition)
Procedure, shortened: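 Five first-instar larvae placed on dried cotton leaf discs (on agar) previously sprayed with aqueous dilutions of 10'000 ppm DMSO stocks. Scored at 3 days against untreated discs for mortality, feeding inhibition and growth inhibition; any category above untreated counts as control.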

Tetranychus urticae = Tetranychus urticae (two-spotted spider mite): feeding/contact activity; conditions: 192 h
Protocol: Bean leaf discs on agar in 24-well microtiter plates were sprayed with aqueous test solutions prepared from 10'000 ppm DMSO stock solutions. After drying the leaf discs were infested with a mite population of mixed ages. The samples were assessed for mortality on mixed population (mobile stages) 8 days after infestation.

Thrips tabaci = Thrips tabaci (onion thrips): feeding/contact activity; conditions: 144 h
Protocol: Sunflower leaf discs were placed on agar in 24-well microtiter plates and sprayed with aqueous test solutions prepared from 10'000 ppm DMSO stock solutions. After drying the leaf discs were infested with a Thrips population of mixed ages. The samples were assessed for mortality 6 days after infestation.

[1] = application rate 200 ppm, aphid population of mixed ages, 6 days after infestation, read-out: mortality
[2] = application rate 200 ppm, L1 larvae, 3 days after infestation
[3] = application rate 200 ppm, mixed population (mobile stages), 8 days after infestation, read-out: mortality
[4] = application rate 200 ppm, Thrips population of mixed ages, 6 days after infestation, read-out: mortality

COCCS(=O)(=O)N1CC(NC(=O)c2ccc(C3=NO[C@@](c4cc(Cl)c(F)c(Cl)c4)(C(F)(F)F)C3)cc2C)CO1 (stereo partly drawn) [Compound A18]
≥ 80%: percent effect (mortality or growth inhibition) at 200 ppm (Diabrotica balteata) | percent effect (mortality or growth inhibition) at 200 ppm (Euschistus heros) | mortality at 200 ppm (Myzus persicae; [1]) | percent effect (mortality or growth inhibition) at 200 ppm (Plutella xylostella) | mortality at 200 ppm (Spodoptera littoralis; [2]) | mortality at 200 ppm (Tetranychus urticae; [3]) | mortality at 200 ppm (Thrips tabaci; [4])

Cc1cc(C2=NO[C@@](c3cc(Cl)c(F)c(Cl)c3)(C(F)(F)F)C2)ccc1C(=O)N[C@@H]1CON(S(=O)(=O)F)C1 [Compound A213, (4S)-4-[[4-[(5S)-5-(3,5-dichloro-4-fluorophenyl)-5-(trifluoromethyl)-4H-1,2-oxazol-3-yl]-2-methylbenzoyl]amino]-1,2-oxazolidine-2-sulfonyl fluoride]
≥ 80%: percent control (mortality or growth inhibition) at 200 ppm (Diabrotica balteata) | percent control (mortality or growth inhibition) at 200 ppm (Euschistus heros) | mortality at 200 ppm (Myzus persicae) | percent control (mortality or growth inhibition) at 200 ppm (Plutella xylostella) | mortality at 200 ppm (Spodoptera littoralis) | mortality at 200 ppm (Tetranychus urticae) | mortality at 200 ppm (Thrips tabaci)

Cc1cc(C2=NO[C@@](c3cc(Cl)c(Cl)c(Cl)c3)(C(F)(F)F)C2)ccc1C(=O)N[C@@H]1CON(S(=O)(=O)C2CC2)C1 [Compound A229, N-[(4S)-2-cyclopropylsulfonyl-1,2-oxazolidin-4-yl]-2-methyl-4-[(5S)-5-(3,4,5-trichlorophenyl)-5-(trifluoromethyl)-4H-1,2-oxazol-3-yl]benzamide]
≥ 80%: percent effect (mortality or growth inhibition) at 200 ppm (Diabrotica balteata) | percent effect (mortality or growth inhibition) at 200 ppm (Euschistus heros) | mortality at 200 ppm (Myzus persicae; [1]) | percent effect (mortality or growth inhibition) at 200 ppm (Plutella xylostella) | mortality at 200 ppm (Spodoptera littoralis; [2]) | mortality at 200 ppm (Tetranychus urticae; [3]) | mortality at 200 ppm (Thrips tabaci; [4])

Cc1cc(C2=NO[C@@](c3cc(Cl)c(Cl)c(Cl)c3)(C(F)(F)F)C2)ccc1C(=O)NC1CON(S(=O)(=O)N(C)Cc2ccccc2)C1 (stereo partly drawn) [Compound A86, N-[2-[benzyl(methyl)sulfamoyl]isoxazolidin-4-yl]-2-methyl-4-[(5S)-5-(3,4,5-trichlorophenyl)-5-(trifluoromethyl)-4H-isoxazol-3-yl]benzamide]
≥ 80%: percent effect (mortality or growth inhibition) at 200 ppm (Diabrotica balteata) | percent effect (mortality or growth inhibition) at 200 ppm (Euschistus heros) | mortality at 200 ppm (Myzus persicae; [1]) | percent effect (mortality or growth inhibition) at 200 ppm (Plutella xylostella) | mortality at 200 ppm (Spodoptera littoralis; [2]) | mortality at 200 ppm (Tetranychus urticae; [3]) | mortality at 200 ppm (Thrips tabaci; [4])

Cc1cc(C2=NO[C@@](c3cc(Cl)cc(Cl)c3)(C(F)(F)F)C2)ccc1C(=O)N[C@@H]1CON(S(=O)(=O)CC(=O)O)C1 [Compound A174, 2-[[(4S)-4-[[4-[(5S)-5-(3,5-dichlorophenyl)-5-(trifluoromethyl)-4H-1,2-oxazol-3-yl]-2-methylbenzoyl]amino]-1,2-oxazolidin-2-yl]sulfonyl]acetic acid]
≥ 80%: percent effect (mortality or growth inhibition) at 200 ppm (Diabrotica balteata) | percent effect (mortality or growth inhibition) at 200 ppm (Euschistus heros) | mortality at 200 ppm (Myzus persicae; [1]) | percent effect (mortality or growth inhibition) at 200 ppm (Plutella xylostella) | mortality at 200 ppm (Spodoptera littoralis; [2]) | mortality at 200 ppm (Tetranychus urticae; [3]) | mortality at 200 ppm (Thrips tabaci; [4])

Cc1cc(C2=NO[C@@](c3cc(Cl)c(OC(F)F)c(Cl)c3)(C(F)(F)F)C2)ccc1C(=O)N[C@@H]1CON(S(=O)(=O)N(C)C)C1 [Compound A205, 4-[(5S)-5-[3,5-dichloro-4-(difluoromethoxy)phenyl]-5-(trifluoromethyl)-4H-1,2-oxazol-3-yl]-N-[(4S)-2-(dimethylsulfamoyl)-1,2-oxazolidin-4-yl]-2-methylbenzamide]
≥ 80%: percent effect (mortality or growth inhibition) at 200 ppm (Diabrotica balteata) | percent effect (mortality or growth inhibition) at 200 ppm (Euschistus heros) | mortality at 200 ppm (Myzus persicae; [1]) | percent effect (mortality or growth inhibition) at 200 ppm (Plutella xylostella) | mortality at 200 ppm (Spodoptera littoralis; [2]) | mortality at 200 ppm (Tetranychus urticae; [3]) | mortality at 200 ppm (Thrips tabaci; [4])

CNS(=O)(=O)N1C[C@H](NC(=O)c2ccc(C3=NO[C@@](c4ccc(F)c(C(F)(F)F)c4)(C(F)(F)F)C3)cc2C)CO1 [Compound A181]
≥ 80%: percent effect (mortality or growth inhibition) at 200 ppm (Diabrotica balteata) | percent effect (mortality or growth inhibition) at 200 ppm (Euschistus heros) | mortality at 200 ppm (Myzus persicae; [1]) | percent effect (mortality or growth inhibition) at 200 ppm (Plutella xylostella) | mortality at 200 ppm (Spodoptera littoralis; [2]) | mortality at 200 ppm (Tetranychus urticae; [3]) | mortality at 200 ppm (Thrips tabaci; [4])

Cc1cc(C2=NO[C@](c3ccc(F)c(C(F)(F)F)c3)(C(F)(F)F)C2)ccc1C(=O)N[C@@H]1CON(S(=O)(=O)N(C)C)C1 [Compound A184]
≥ 80%: percent effect (mortality or growth inhibition) at 200 ppm (Diabrotica balteata) | percent effect (mortality or growth inhibition) at 200 ppm (Euschistus heros) | mortality at 200 ppm (Myzus persicae; [1]) | percent effect (mortality or growth inhibition) at 200 ppm (Plutella xylostella) | mortality at 200 ppm (Spodoptera littoralis; [2]) | mortality at 200 ppm (Tetranychus urticae; [3]) | mortality at 200 ppm (Thrips tabaci; [4])

Cc1cc(C2=NO[C@@](c3cc(Cl)c(OC(F)F)c(Cl)c3)(C(F)(F)F)C2)ccc1C(=O)N[C@@H]1CON(S(C)(=O)=O)C1 [Compound A204, 4-[(5S)-5-[3,5-dichloro-4-(difluoromethoxy)phenyl]-5-(trifluoromethyl)-4H-1,2-oxazol-3-yl]-2-methyl-N-[(4S)-2-methylsulfonyl-1,2-oxazolidin-4-yl]benzamide]
≥ 80%: percent effect (mortality or growth inhibition) at 200 ppm (Diabrotica balteata) | percent effect (mortality or growth inhibition) at 200 ppm (Euschistus heros) | mortality at 200 ppm (Myzus persicae; [1]) | percent effect (mortality or growth inhibition) at 200 ppm (Plutella xylostella) | mortality at 200 ppm (Spodoptera littoralis; [2]) | mortality at 200 ppm (Tetranychus urticae; [3]) | mortality at 200 ppm (Thrips tabaci; [4])

CC(C)(C)OC(=O)NS(=O)(=O)N1C[C@@H](NC(=O)c2ccc(C3=NO[C@@](c4cc(Cl)cc(Cl)c4)(C(F)(F)F)C3)cc2Cl)CO1 [Compound A151, tert-butyl N-[(4R)-4-[[2-chloro-4-[(5S)-5-(3,5-dichlorophenyl)-5-(trifluoromethyl)-4H-isoxazol-3-yl]benzoyl]amino]isoxazolidin-2-yl]sulfonylcarbamate]
≥ 80%: percent effect (mortality or growth inhibition) at 200 ppm (Diabrotica balteata) | percent effect (mortality or growth inhibition) at 200 ppm (Euschistus heros) | mortality at 200 ppm (Myzus persicae; [1]) | percent effect (mortality or growth inhibition) at 200 ppm (Plutella xylostella) | mortality at 200 ppm (Spodoptera littoralis; [2]) | mortality at 200 ppm (Tetranychus urticae; [3]) | mortality at 200 ppm (Thrips tabaci; [4])

Cc1cc(C2=NO[C@](c3cc(Cl)cc(C(F)(F)F)c3)(C(F)(F)F)C2)ccc1C(=O)N[C@H]1CON(S(=O)(=O)F)C1 [Compound A219]
≥ 80%: percent control (mortality or growth inhibition) at 200 ppm (Diabrotica balteata) | percent control (mortality or growth inhibition) at 200 ppm (Euschistus heros) | mortality at 200 ppm (Myzus persicae) | percent control (mortality or growth inhibition) at 200 ppm (Plutella xylostella) | mortality at 200 ppm (Spodoptera littoralis) | mortality at 200 ppm (Tetranychus urticae) | mortality at 200 ppm (Thrips tabaci)

Cc1cc(C2=NO[C@@](c3cc(Cl)c(F)c(Cl)c3)(C(F)(F)F)C2)ccc1C(=O)N[C@@H]1CON(S(=O)(=O)CC(=O)O)C1 [Compound A200]
≥ 80%: percent effect (mortality or growth inhibition) at 200 ppm (Diabrotica balteata) | percent effect (mortality or growth inhibition) at 200 ppm (Euschistus heros) | mortality at 200 ppm (Myzus persicae; [1]) | percent effect (mortality or growth inhibition) at 200 ppm (Plutella xylostella) | mortality at 200 ppm (Spodoptera littoralis; [2]) | mortality at 200 ppm (Tetranychus urticae; [3]) | mortality at 200 ppm (Thrips tabaci; [4])

From patent US10588317B2, “Isoxazoline-substituted benzamides and analogues as insecticides” (priority 2015, dated 2020)
